Source: BindingDB's records for patent US11718613 (University of Michigan, 2023)

Molecular target: Induced myeloid leukemia cell differentiation protein Mcl-1 (Homo sapiens, UniProt Q07820)
Assay: Bcl-2 and Bcl-xL Inhibition Assay
Experimental: Fluorescence polarization values were measured using the Infinite M-1000 plate reader (Tecan U.S., Research Triangle Park, N.C.) in Microfluor 1 96-well, black, round-bottom plates (Thermo Scientific). […] Plates were mixed and incubated at room temperature for 1 hour with gentle shaking to assure equilibrium. […] Equilibrium dissociation constants (Kd) were then calculated by fitting the sigmoidal dose-dependent FP increases as a function of protein concentrations using Graphpad Prism 5.0 software (Graphpad Software, San Diego, Calif.).

Sequence of Induced myeloid leukemia cell differentiation protein Mcl-1 (Q07820 whole entry): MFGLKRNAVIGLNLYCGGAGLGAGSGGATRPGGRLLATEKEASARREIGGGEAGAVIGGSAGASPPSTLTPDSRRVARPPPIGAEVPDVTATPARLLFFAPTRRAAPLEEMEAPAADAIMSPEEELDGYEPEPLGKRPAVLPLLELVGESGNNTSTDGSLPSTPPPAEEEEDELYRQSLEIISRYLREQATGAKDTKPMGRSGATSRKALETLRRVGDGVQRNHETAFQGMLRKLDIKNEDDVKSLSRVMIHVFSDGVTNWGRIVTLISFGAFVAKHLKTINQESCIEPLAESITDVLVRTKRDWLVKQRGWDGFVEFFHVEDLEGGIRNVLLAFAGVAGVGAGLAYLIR

Which IC50 does the source give for `O=C(NS(=O)(=O)c1ccc(NC[C@@H]2COCCO2)c([N+](=O)[O-])c1)c1ccc(N2CCN(CC3=C(c4ccc(Cl)cc4)CC4(CCC4)CC3)CC2)cc1Oc1cnc2[nH]ccc2c1` [US11718613, Compound 13] here?
The IC50 was over 5 µM.
